Assay results from PubChem BioAssay AID1963834 (Molecular Pharmacology Branch, DTP, NCI, 2024).

Test system: 873145-292-R-J1-PDC complex spheroid viability
Assay: Anticancer human tumor 873145-292-R-J1-PDC patient-derived renal clear cell carcinoma cell line growth inhibition [POLQ]
Conditions: for IC50: curve of first compound; for viability, T/C: stronger effect = lower value
How it was run: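 Patient-derived tumour cells were co-cultured with HUVEC and mesenchymal stem cells as multicellular spheroids at 37 °C. They were treated with POLQ inhibitors (novobiocin, ART-558, RP6685) alone or combined with other agents. Top concentrations were at or near clinical Cmax (otherwise 10 microM; SN-38 at 1 microM), decreasing in half-log steps.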

[1] = second compound 0.0316 µM, first compound 0.0316 µM
[2] = second compound 0.0316 µM, first compound 0.1 µM
[3] = second compound 0.0316 µM, first compound 0.316 µM
[4] = second compound 0.0316 µM, first compound 1 µM
[5] = second compound 0.1 µM, first compound 0.0316 µM
[6] = second compound 0.1 µM, first compound 0.1 µM
[7] = second compound 0.1 µM, first compound 0.316 µM
[8] = second compound 0.1 µM, first compound 1 µM
[9] = second compound 0.316 µM, first compound 0.0316 µM
[10] = second compound 0.316 µM, first compound 0.1 µM
[11] = second compound 0.316 µM, first compound 0.316 µM
[12] = second compound 0.316 µM, first compound 1 µM
[13] = second compound 1 µM, first compound 0.0316 µM
[14] = second compound 1 µM, first compound 0.1 µM
[15] = second compound 1 µM, first compound 0.316 µM
[16] = second compound 1 µM, first compound 1 µM
[17] = second compound 3.16 µM, first compound 0.0316 µM
[18] = second compound 3.16 µM, first compound 0.1 µM
[19] = second compound 3.16 µM, first compound 0.316 µM
[20] = second compound 3.16 µM, first compound 1 µM
[21] = second compound 10 µM, first compound 0.0316 µM
[22] = second compound 10 µM, first compound 0.1 µM
[23] = second compound 10 µM, first compound 0.316 µM
[24] = second compound 10 µM, first compound 1 µM
[25] = second compound 0.0316 µM, first compound 0.00316 µM
[26] = second compound 0.0316 µM, first compound 0.01 µM
[27] = second compound 0.1 µM, first compound 0.00316 µM
[28] = second compound 0.1 µM, first compound 0.01 µM
[29] = second compound 0.316 µM, first compound 0.00316 µM
[30] = second compound 0.316 µM, first compound 0.01 µM
[31] = second compound 1 µM, first compound 0.00316 µM
[32] = second compound 1 µM, first compound 0.01 µM
[33] = second compound 3.16 µM, first compound 0.00316 µM
[34] = second compound 3.16 µM, first compound 0.01 µM
[35] = second compound 10 µM, first compound 0.00316 µM
[36] = second compound 10 µM, first compound 0.01 µM
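Also: spheroids exposed to compounds for 7 days before viability readout.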
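For viability, T/C in this document: luminescence signal used as surrogate for viable cell content; 100% = DMSO vehicle control viability.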

For `CCCS(=O)(=O)Nc1ccc(F)c(C(=O)c2c[nH]c3ncc(-c4ccc(Cl)cc4)cc23)c1F` + Cc1cccc(N(C)C(=O)C2C(O)CCN2c2nc(C)cc(C(F)(F)F)c2C#N)c1, the IC50 (second compound 0.0316 µM) was > 10 µM, the IC50 (second compound 0.1 µM) was > 10 µM and the IC50 (second compound 0.316 µM) was > 10 µM. For the same molecule, the IC50 (second compound 1 µM) was > 10 µM, the IC50 (second compound 3.16 µM) was > 10 µM and the IC50 (second compound 10 µM) was > 10 µM. It also gave a viability, T/C [1] of 115%, a viability, T/C [2] of 110% and a viability, T/C [3] of 113%. For the same molecule, the viability, T/C [4] was 118%, the viability, T/C (second compound 0.0316 µM, first compound 3.16 µM) was 89.9% and the viability, T/C (second compound 0.0316 µM, first compound 10 µM) was 79.3%. For the same molecule, the viability, T/C [5] was 105%, the viability, T/C [6] was 106% and the viability, T/C [7] was 90.8%. It also gave a viability, T/C [8] of 121%, a viability, T/C (second compound 0.1 µM, first compound 3.16 µM) of 105% and a viability, T/C (second compound 0.1 µM, first compound 10 µM) of 67.6%. It also gave a viability, T/C [9] of 117%, a viability, T/C [10] of 125% and a viability, T/C [11] of 94.4%. The viability, T/C [12] was 112%, the viability, T/C (second compound 0.316 µM, first compound 3.16 µM) was 97.4% and the viability, T/C (second compound 0.316 µM, first compound 10 µM) was 80.6%. It also gave a viability, T/C [13] of 98.6%, a viability, T/C [14] of 102% and a viability, T/C [15] of 103%. It also gave a viability, T/C [16] of 106%, a viability, T/C (second compound 1 µM, first compound 3.16 µM) of 105% and a viability, T/C (second compound 1 µM, first compound 10 µM) of 68.6%. The viability, T/C [17] was 101%, the viability, T/C [18] was 111% and the viability, T/C [19] was 109%. For the same molecule, the viability, T/C [20] was 107%, the viability, T/C (second compound 3.16 µM, first compound 3.16 µM) was 105% and the viability, T/C (second compound 3.16 µM, first compound 10 µM) was 83.8%. For the same molecule, the viability, T/C [21] was 103%, the viability, T/C [22] was 101% and the viability, T/C [23] was 96.1%. For the same molecule, the viability, T/C [24] was 109%, the viability, T/C (second compound 10 µM, first compound 3.16 µM) was 96.8% and the viability, T/C (second compound 10 µM, first compound 10 µM) was 81.1%.

In the case of `Cn1ncnc1[C@H]1c2n[nH]c(=O)c3cc(F)cc(c23)N[C@@H]1c1ccc(F)cc1` + Nc1ccc(C#CCN(C(=O)Cc2ncc(C(F)(F)F)cc2C(F)(F)F)c2ccc(F)cc2)nn1, the IC50 (second compound 0.0316 µM) is reported as > 0.1 µM, the IC50 (second compound 0.1 µM) is reported as > 0.1 µM and the IC50 (second compound 0.316 µM) is reported as > 0.1 µM. For the same molecule, the IC50 (second compound 1 µM) was > 0.1 µM, the IC50 (second compound 3.16 µM) was > 0.1 µM and the IC50 (second compound 10 µM) was > 0.1 µM. For the same molecule, the viability, T/C (second compound 0.0316 µM, first compound 0.000316 µM) was 124%, the viability, T/C (second compound 0.0316 µM, first compound 0.001 µM) was 103% and the viability, T/C [25] was 90.9%. The viability, T/C [26] was 99.3%, the viability, T/C [1] was 106% and the viability, T/C [2] was 104%. The viability, T/C (second compound 0.1 µM, first compound 0.000316 µM) was 105%, the viability, T/C (second compound 0.1 µM, first compound 0.001 µM) was 99.3% and the viability, T/C [27] was 107%. The viability, T/C [28] was 91.8%, the viability, T/C [5] was 102% and the viability, T/C [6] was 99.6%. It also gave a viability, T/C (second compound 0.316 µM, first compound 0.000316 µM) of 97%, a viability, T/C (second compound 0.316 µM, first compound 0.001 µM) of 108% and a viability, T/C [29] of 99.2%. The viability, T/C [30] was 96.7%, the viability, T/C [9] was 98.8% and the viability, T/C [10] was 96.8%. For the same molecule, the viability, T/C (second compound 1 µM, first compound 0.000316 µM) was 94.9%, the viability, T/C (second compound 1 µM, first compound 0.001 µM) was 100% and the viability, T/C [31] was 96.1%. It also gave a viability, T/C [32] of 97.1%, a viability, T/C [13] of 95.9% and a viability, T/C [14] of 96.3%. It also gave a viability, T/C (second compound 3.16 µM, first compound 0.000316 µM) of 92.1%, a viability, T/C (second compound 3.16 µM, first compound 0.001 µM) of 108% and a viability, T/C [33] of 97.2%. For the same molecule, the viability, T/C [34] was 95.3%, the viability, T/C [17] was 95.8% and the viability, T/C [18] was 95.8%. It also gave a viability, T/C (second compound 10 µM, first compound 0.000316 µM) of 107%, a viability, T/C (second compound 10 µM, first compound 0.001 µM) of 110% and a viability, T/C [35] of 108%. The viability, T/C [36] was 117%, the viability, T/C [21] was 107% and the viability, T/C [22] was 103%.

With `C=CCn1c(=O)c2cnc(Nc3ccc(N4CCN(C)CC4)cc3)nc2n1-c1cccc(C(C)(C)O)n1` + COC1C(OC(N)=O)C(O)C(Oc2ccc3c(O)c(NC(=O)c4ccc(O)c(CC=C(C)C)c4)c(=O)oc3c2C)OC1(C)C the IC50 (second compound 0.0316 µM) was > 1 µM, the IC50 (second compound 0.1 µM) was > 1 µM and the IC50 (second compound 0.316 µM) was > 1 µM. The IC50 (second compound 1 µM) was > 1 µM, the IC50 (second compound 3.16 µM) was > 1 µM and the IC50 (second compound 10 µM) was > 1 µM. For the same molecule, the viability, T/C [25] was 98.9%, the viability, T/C [26] was 109% and the viability, T/C [1] was 89.8%. The viability, T/C [2] was 85.5%, the viability, T/C [3] was 90.7% and the viability, T/C [4] was 70.1%. For the same molecule, the viability, T/C [27] was 102%, the viability, T/C [28] was 97.6% and the viability, T/C [5] was 100%. It also gave a viability, T/C [6] of 95.5%, a viability, T/C [7] of 84.9% and a viability, T/C [8] of 69.9%. For the same molecule, the viability, T/C [29] was 100%, the viability, T/C [30] was 109% and the viability, T/C [9] was 96%. For the same molecule, the viability, T/C [10] was 97.7%, the viability, T/C [11] was 83.5% and the viability, T/C [12] was 74.5%. It also gave a viability, T/C [31] of 98.8%, a viability, T/C [32] of 96% and a viability, T/C [13] of 99.6%. It also gave a viability, T/C [14] of 83.2%, a viability, T/C [15] of 94.6% and a viability, T/C [16] of 63.1%. It also gave a viability, T/C [33] of 100%, a viability, T/C [34] of 98.8% and a viability, T/C [17] of 89.5%. The viability, T/C [18] was 89.5%, the viability, T/C [19] was 88.3% and the viability, T/C [20] was 75.7%. It also gave a viability, T/C [35] of 100%, a viability, T/C [36] of 92.1% and a viability, T/C [21] of 101%. For the same molecule, the viability, T/C [22] was 96.8%, the viability, T/C [23] was 76.5% and the viability, T/C [24] was 72%.
